Experimental data published in ChEMBL document CHEMBL6121019, “Design, synthesis and biological evaluation of bisnoralcohol derivatives as novel IRF4 inhibitors for the treatment of multiple myeloma” (Eur J Med Chem, 2025).
Active and inactive are the calls of the source. The calls are words filed in the database; no cut-off is given here.

What was measured:
[1] = test system: NCI-H929; assay: Antitumor activity against human NCI-H929 cells xenografted in Balb/C nude mouse model assessed as inhibition of ERK phosphorylation level at 25 mg/kg by Western blot analysis; type: functional, organism-based
[2] = AUC (0 to t) in ICR mouse plasma at 1.0 mg/kg, iv; type: ADME, organism-based
[3] = Selectivity ratio IC50 for human RPMI-8226 cells to IC50 for human NCI-H929 cells; type: toxicity
[4] = Toxicity in Balb/C nude mouse assessed as change in body weight at 12.5 to 25 mg/kg administered once daily and measured every three days for 34 days; type: organism-based; details: in vivo, 816 h, dose 12.5-25 mg/kg, time 34 day
[5] = test system: MM.1R; assay: Induction of cell cycle arrest in human MM1.R cells assessed as inhibition of CMYC protein expression at 0.1 to 1 uM; type: functional, cell-based; details: dose 0.1-1 µM
[6] = test system: NCI-H929; assay: Induction of cell cycle arrest in human NCI-H929 cells assessed as inhibition of cyclin D1 protein expression at 0.1 to 1 uM; type: functional, cell-based; details: dose 0.1-1 µM
[7] = Potency index, ratio of IC50 for lenalidomide to test compound IC50 for antiproliferative activity against human MM1.R cells assessed as inhibition of cell growth measured after 72 hrs by MTS assay; type: functional
[8] = test system: MM.1R; assay: Induction of cell cycle arrest in human MM1.R cells assessed as inhibition of cyclin B1 protein expression at 0.1 to 1 uM; type: functional, cell-based; details: dose 0.1-1 µM
[9] = test system: MM.1R; assay: Effect on IRF4 expression in human MM1.R cells by Western blot analysis; type: functional, cell-based
[10] = test system: NCI-H929; assay: Induction of cell cycle arrest in human NCI-H929 cells assessed as accumulation of cells at G1 phase at 0.25 uM measured after 24 hrs by flow cytometry analysis (reference value: 54.12%); type: functional
[11] = test system: NCI-H929; assay: Induction of cell cycle arrest in human NCI-H929 cells assessed as accumulation of cells at G2 phase at 0.125 uM measured after 24 hrs by flow cytometry analysis (reference value: 13.37%); type: functional
[12] = AUC (0 to infinity) in ICR mouse plasma at 10 mg/kg, po; type: ADME, organism-based
[13] = test system: NCI-H929; assay: Antitumor activity against human NCI-H929 cells xenografted in Balb/C nude mouse model assessed as inhibition of tumor volume measured after 34 days; type: functional; details: dose 12.5-25 mg/kg, time 34.0 day
[14] = test system: NCI-H929; assay: Induction of cell cycle arrest in human NCI-H929 cells assessed as accumulation of cells at G1 phase at 0.125 uM measured after 24 hrs by flow cytometry analysis (reference value: 54.12%); type: functional
[15] = test system: NCI-H929; assay: Induction of cell cycle arrest in human NCI-H929 cells assessed as inhibition of CMYC protein expression at 0.1 to 1 uM; type: functional, cell-based; details: dose 0.1-1 µM
[16] = test system: MM.1R; assay: Induction of cell cycle arrest in human MM1.R cells assessed as inhibition of cyclin D1 protein expression at 0.1 to 1 uM; type: functional, cell-based; details: dose 0.1-1 µM
[17] = test system: NCI-H929; assay: Downregulation of CMYC expression in human NCI-H929 cells measured after 24 hrs by qRT-PCR analysis; type: functional, cell-based; details: dose 0.125-1 µM
[18] = test system: NCI-H929; assay: Inhibition of ERK phosphorylation level in human NCI-H929 cells at 0.1 to 1 uM by Western blot analysis; type: functional, cell-based; details: dose 0.1-1 µM
[19] = test system: MM.1R; assay: Downregulation of CANX expression in human MM1.R cells measured after 24 hrs by qRT-PCR analysis; type: functional, cell-based; details: dose 0.125-1 µM
[20] = test system: NCI-H929; assay: Induction of cell cycle arrest in human NCI-H929 cells assessed as accumulation of cells at S phase at 0.5 uM measured after 24 hrs by flow cytometry analysis (reference value: 32.14%); type: functional
[21] = test system: MM.1R; assay: Induction of cell cycle arrest in human MM1.R cells assessed as inhibition of CDC2 protein expression at 0.1 to 1 uM; type: functional, cell-based; details: dose 0.1-1 µM
[22] = test system: HAF; assay: Effect on IRF4 expression in human HAF cells by Western blot analysis; type: functional, cell-based

AUC(0-t) [2]: 81 ng·h/mL | AUC(0-inf) [12]: 463 ng·h/mL
SMILES: COc1ccc(NC(=O)[C@@H](C)[C@H]2CC[C@H]3[C@@H]4C(=O)C=C5C(C)(C)C(=O)C(C#N)=C[C@]5(C)[C@H]4CC[C@]23C)cc1
Activity [1]: Active | Ratio IC50 [3]: 14.9 | Activity [4]: Non-toxic | Activity [5]: Active | Activity [6]: Active | Ratio IC50 [7]: 30 | Activity [8]: Active | Activity [9]: Active | Activity [10]: 60.31% | Activity [11]: 11.45% | Activity [13]: Active; More Effective Than Lenalidomide | Activity [14]: 57.62% | Activity [15]: Active | Activity [16]: Active | Activity [17]: Active | inhibition [18]: Active | Activity [19]: Active | Activity [20]: 20.54% | Activity [21]: Active | Activity [22]: inactive
